Test results from PubChem BioAssay (NCI).
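Interpolation was linear, between the two tested concentrations surrounding the appropriate level; five concentrations were tested over 48 hours in 96-well plates. TGI is the concentration that stops growth completely.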

Assays:
Assay in all cases: DTP human tumour cell line panel, 48 h
[1] = test system: A498 renal
[2] = test system: A549 NSCLC
[3] = test system: ACHN renal
[4] = test system: EKVX NSCLC
[5] = test system: HCT-15 colon
[6] = test system: HOP-62 NSCLC
[7] = test system: HT29 colon
[8] = test system: IGROV1 ovarian
[9] = test system: K-562 leukemia
[10] = test system: MDA-MB-231 breast
[11] = test system: MOLT-4 leukemia
[12] = test system: NCI-H226 lung
[13] = test system: NCI-H522 lung
[14] = test system: OVCAR-4 ovarian
[15] = test system: SK-MEL-5 melanoma
[16] = test system: SK-OV-3 ovarian
[17] = test system: SNB-75 CNS
[18] = test system: SW-620 colon
[19] = test system: T-47D breast

Row | Structure (SMILES) | TGI [1] [µM] | TGI [2] [µM] | TGI [3] [µM] | TGI [4] [µM] | TGI [5] [µM] | TGI [6] [µM] | TGI [7] [µM] | TGI [8] [µM] | TGI [9] [µM] | TGI [10] [µM] | TGI [11] [µM] | TGI [12] [µM] | TGI [13] [µM] | TGI [14] [µM] | TGI [15] [µM] | TGI [16] [µM] | TGI [17] [µM] | TGI [18] [µM] | TGI [19] [µM]
1 | Cc1cccc(NC(=O)O/N=C(\Cl)C(C)C)c1 | 34.4 | 40.9 | 3.94 | 11.1 | 4.98 | 34.5 | 27.2 | 33.8 | > 100 | 33.4 | 5.63 | 33.5 | 2.99 | 29.4 | 32.9 | 31.7 | 33.1 | 3.6 | 15.6
2 | CCOC(=O)c1nc2ccccc2nc1NCc1ccc(OC)c(OC)c1 | > 100 | > 100 | > 100 | > 100 | > 100 | > 100 | > 100 | > 100 | > 100 | > 100 | > 100 | > 100 | > 100 | > 100 | > 100 | > 100 | > 100 | > 100 | > 100
3 | COC(=O)[C@H](Cc1ccccc1)NC(=O)N(CCC#N)CCCCN(CCC#N)C(=O)N[C@@H](Cc1ccccc1)C(=O)OC | > 100 | > 100 | > 100 | > 100 | > 100 | > 100 |  |  | > 100 | > 100 | > 100 | > 100 | > 100 | > 100 | > 100 | > 100 | > 79.1 | > 100 | > 100
4 | COc1cccc2c1C1(O)C2CCCCCCCCCC12OCCCO2 (stereo unspecified) | > 100 | > 100 | > 100 |  | > 100 | > 100 | > 59.2 | > 100 | > 100 | > 100 | > 100 | > 94.2 | > 96.5 | > 100 | > 100 | > 100 | > 91.8 | > 100 | > 100
5 | O=C1c2c(O)cc(O)cc2C(C2OC(CO)C(O)C(O)C2O)c2cc(CO)cc(O)c21 (stereo unspecified) | > 100 | > 100 | > 100 | > 100 | > 100 | > 100 | > 100 | > 100 | > 100 | > 100 | > 100 | > 100 |  | > 100 | > 100 | > 100 | 54.9 | > 100 | > 100
6 | CC(=O)N1c2ccccc2C2=NN(C)C(=N)SC21 (stereo unspecified) | > 100 | > 100 | > 100 | > 100 | > 100 | > 100 | > 100 |  | > 100 | > 100 | > 100 | > 100 | > 100 | > 100 |  |  | > 100 | > 100 | > 100
7 | O=C(O)c1nc2ccc(Cl)cc2[nH]c1=O | > 100 | > 100 | > 100 | > 100 | > 100 | > 100 | > 100 | > 100 | > 100 | > 100 | > 100 | > 100 | > 100 | > 100 | > 100 | > 100 |  | > 100 | > 100
8 | CC(=O)Nc1ccc2c3c(cc(O)c2c1)N(C(=O)CCCCC(=O)N1CC(CCl)c2c1cc(O)c1cc(NC(C)=O)ccc21)CC3CCl (stereo unspecified) | 0.39 |  | 1.49 | 12.8 | > 70.6 | 8.78 | > 30.4 |  | > 100 | 0.733 | 0.0176 | 0.763 | 0.545 | > 27.7 | 0.391 | > 64.5 | 0.297 | > 100 | 0.0973
9 | S=C=Nc1ccc(CSc2nc3ccccc3[nH]2)cc1 | 46 | 31 | 30.5 | 40.4 | 28.4 | 32.1 | 32.6 | 33.7 | > 100 | 51.6 | 55.1 |  | 19.1 | 31.6 | 29.4 | 40.3 | 32 | 31.4 | 31.8
10 | O=C(/C=C/c1ccc(OCc2ccccc2)cc1)NCc1ccc(C(=O)NCCc2c[nH]c3ccccc23)cc1 | > 100 | 87.6 | > 100 | > 100 | > 100 | 15.6 | > 56.6 | 56.1 | > 100 | 61.1 | > 100 | > 58.8 |  | > 48.4 | > 58.6 | 44.4 | 38.1 | > 100 | > 100
11 | Cn1c2c(c3ccccc31)CCN=C2C1CCCOC1=O (stereo unspecified) | > 100 | > 100 | > 100 | > 100 | > 100 | > 100 | > 100 | > 100 |  | > 100 |  | > 100 | > 100 | > 100 | > 100 |  | > 100 | > 100 | > 100
12 | COC(=O)c1cc(OS(=O)(=O)C(F)(F)F)c(=O)n2c1CCCC2 | > 100 | > 100 | > 100 | > 100 | > 100 | > 100 | > 100 | > 100 |  | > 100 | > 100 | > 100 | > 100 | > 100 | > 100 | > 100 | > 100 | > 100 | > 100
13 | Cn1nc2ccc([N+](=O)[O-])cc2[n+]1[O-] | > 100 | > 100 | > 100 | > 100 | > 100 | > 100 | > 100 | > 100 | > 100 | > 100 | > 100 | > 100 | > 100 | > 100 | > 100 | > 100 | > 100 |  | > 100
14 | COc1ccc(C2C(C#N)=C(S)N(C3OC(COC(C)=O)C(OC(C)=O)C(OC(C)=O)C3OC(C)=O)C(C)=C2C(C)=O)cc1 (stereo unspecified) |  | > 100 | > 100 |  | > 100 | > 100 | > 100 | > 100 | > 100 | > 100 | > 100 |  |  | > 100 | > 100 | > 100 | > 100 | > 100 | 83.1
15 | COC1=N[C@H](C(C)C)C(OC)=N[C@H]1Cc1ccc(C[C@@H]2N=C(OC)[C@@H](C(C)C)N=C2OC)s1 |  | > 100 | > 100 | > 100 | > 100 | > 100 | 96.3 | > 100 | > 100 | > 100 | 41 |  | 63.2 | > 100 | 47.8 | > 100 | > 100 | > 100 | 38.9
16 | CSc1nc(Nc2ccccc2Cl)c2c(N)nn(C)c2n1 | > 100 | > 100 | 26 | > 100 | > 100 | > 100 | > 100 | > 100 | > 100 | > 100 | > 100 | > 100 | > 100 | > 100 | > 100 | > 100 |  | > 100 | 63.5
17 | CCOC(=O)Nc1sc2c(c1C#N)CC(C)CC2 (stereo unspecified) |  | 40 | 88.5 | > 100 | > 100 | > 100 | 10.9 | > 100 | > 100 | 46.7 | > 100 | 35.3 | 16.9 | > 100 | 16.6 | > 100 | 38.2 | > 100 | > 100
18 | CC(C)=NNc1snnc1C(N)=O | > 100 | > 100 | > 100 | > 100 |  | > 100 | > 100 | > 100 | > 100 | > 100 | > 100 | > 100 | > 100 |  | > 100 | > 100 | > 100 |  | > 100
19 | CC(C)(C)c1cc2c(c(C(C)(C)C)c1O)CC(=O)O2 | 94.7 | > 100 | 55.5 | > 100 | > 100 | 92.8 | > 100 | 89.3 | > 100 | 75.4 | > 100 | 74.7 | > 100 | > 100 | 32.2 | > 100 |  | > 100 | 64.7
20 | N#Cc1cc2c(cc1C#N)/C(=N\c1cccc(N)n1)N=C2Nc1cccc(N)n1 |  | > 100 | 57.3 | > 100 | 76.5 | 70.2 | 85.7 | > 100 | > 100 | 40.9 | > 100 | > 100 | 22.6 |  | 22.1 | 42.4 | 76.1 | 60.1 | > 100
21 | CNCCN[C@@H]1c2cc3c(cc2[C@@H](c2cc(OC)c(O)c(OC)c2)[C@H]2C(=O)OC[C@@H]21)OCO3 |  |  | 1.04 | 22.7 | 98.7 | 0.678 | 1.89 | 2.63 | > 100 | 2.71 | 0.0587 | 0.686 | 1.93 | > 100 | 1.16 | 1.52 | 1.12 | > 100 | 2.6
22 | O=C1C2=Cc3ccccc3OC2(O)Oc2ccccc21 (stereo unspecified) | > 100 | > 100 |  | > 100 | > 100 | > 100 | > 100 | > 100 | > 100 | > 100 | > 100 | > 100 |  | > 100 | > 100 | > 100 | > 100 | > 100 | > 100
23 | C=C1[C@H]2O[C@H]2[C@@H](OC(C)=O)[C@@]2(C)[C@@H](OC(C)=O)C[C@@H](OC(=O)CCC)[C@@](C)(O)[C@@H]2[C@@H](OC(C)=O)[C@]2(O)[C@@H](C)C(=O)O[C@H]2[C@H]1Cl | > 100 | > 100 | > 100 | > 100 | > 100 | > 100 | > 100 |  | > 100 | > 100 | > 100 | 0.818 | > 100 | > 100 | > 100 |  | > 100 | > 100 | > 100
24 | CCOc1ccccc1NC(=O)C(=O)C(/C(=N/N)C(=O)OC)c1nc2ccc([N+](=O)[O-])cc2[nH]c1=O (stereo unspecified) | > 100 | > 100 |  | > 100 | > 100 | > 100 | > 100 | > 100 | > 100 | > 100 | > 100 | > 100 | > 100 | > 100 | > 100 | > 100 | > 100 | > 100 | > 100
25 | c1ccc2c(c1)nc1n2CSCC1 | > 100 | > 100 | > 100 | > 100 | > 100 | > 100 | > 100 | > 100 | > 100 | > 100 | > 100 | > 100 |  | > 100 | > 100 | > 100 | > 100 | > 100 | > 100
26 | CN(C)C1(N(C)C)Oc2c(c(=O)n(C)c(=O)n2C)C(c2ccc(C(F)(F)F)cc2)C1(F)F (stereo unspecified) | > 100 | > 100 | > 100 | > 100 | > 100 | > 100 |  |  | > 100 | > 100 |  | > 100 |  | > 100 | > 100 | > 100 | > 100 | > 100 | > 100
